# Columns and labels:
# [1] = tested on: Malme-3M; assay: Growth inhibition of human MALME-3M cells assessed as cell growth at 10 uM incubated for 48 hrs by sulforhodamine B assay relative to control; type: functional; conditions: read-out: Activity
# [2] = Growth inhibition of human MOLT4 cells assessed as cell growth at 10 uM incubated for 48 hrs by sulforhodamine B assay relative to control; type: functional; conditions: MOLT-4, 48 h, read-out: Activity
# [3] = Growth inhibition of human HCT116 cells assessed as cell growth at 10 uM incubated for 48 hrs by sulforhodamine B assay relative to control; type: functional; conditions: HCT-116, 48 h, read-out: Activity
# [4] = Growth inhibition of human OVCAR8 cells assessed as cell growth at 10 uM incubated for 48 hrs by sulforhodamine B assay relative to control; type: functional; conditions: OVCAR-8, 48 h, read-out: Activity
# [5] = Growth inhibition of human OVCAR3 cells assessed as cell growth at 10 uM incubated for 48 hrs by sulforhodamine B assay relative to control; type: functional; conditions: OVCAR-3, 48 h, read-out: Activity
# [6] = Growth inhibition of human COLO205 cells assessed as cell growth at 10 uM incubated for 48 hrs by sulforhodamine B assay relative to control; type: functional; conditions: COLO 205, 48 h, read-out: Activity
# [7] = tested on: SK-MEL-2; assay: Growth inhibition of human SK-MEL-2 cells assessed as cell growth at 10 uM incubated for 48 hrs by sulforhodamine B assay relative to control; type: functional; conditions: SK-MEL-2, 48 h, read-out: Activity
# [8] = tested on: A549; assay: Growth inhibition of human A549/ATCC cells assessed as cell growth at 10 uM incubated for 48 hrs by sulforhodamine B assay relative to control; type: functional; conditions: A549, 48 h, read-out: Activity
# [9] = Growth inhibition of human SF295 cells assessed as cell growth at 10 uM incubated for 48 hrs by sulforhodamine B assay relative to control; type: functional; conditions: SF-295, 48 h, read-out: Activity
# [10] = Quasi-reversible one electron redox potential in dichloromethane containing 0.1 M TBAP assessed as redox potential during 0/-1 redox transition at 2 mmol measured at 100 mV/s in presence of Fc/Fc by cyclic voltammetry; type: physicochemical
# [11] = tested on: T47D; assay: Growth inhibition of human T47D cells assessed as cell growth at 10 uM incubated for 48 hrs by sulforhodamine B assay relative to control; type: functional; conditions: read-out: Activity
# [12] = Growth inhibition of human SKOV3 cells assessed as cell growth at 10 uM incubated for 48 hrs by sulforhodamine B assay relative to control; type: functional; conditions: SK-OV-3, 48 h, read-out: Activity
# [13] = tested on: A498; assay: Growth inhibition of human A498 cells assessed as cell growth at 10 uM incubated for 48 hrs by sulforhodamine B assay relative to control; type: functional; conditions: A498, 48 h, read-out: Activity
# [14] = Growth inhibition of human UACC257 cells assessed as cell growth at 10 uM incubated for 48 hrs by sulforhodamine B assay relative to control; type: functional; conditions: UACC-257, 48 h, read-out: Activity
# [15] = Growth inhibition of human SF539 cells assessed as cell growth at 10 uM incubated for 48 hrs by sulforhodamine B assay relative to control; type: functional; conditions: SF-539, 48 h, read-out: Activity
# [16] = Growth inhibition of human SW620 cells assessed as cell growth at 10 uM incubated for 48 hrs by sulforhodamine B assay relative to control; type: functional; conditions: SW-620, 48 h, read-out: Activity
# [17] = Growth inhibition of human HOP92 cells assessed as cell growth at 10 uM incubated for 48 hrs by sulforhodamine B assay relative to control; type: functional; conditions: HOP-92, 48 h, read-out: Activity
# [18] = tested on: SR; assay: Growth inhibition of human SR cells assessed as cell growth at 10 uM incubated for 48 hrs by sulforhodamine B assay relative to control; type: functional; conditions: read-out: Activity
# [19] = tested on: SK-MEL-28; assay: Growth inhibition of human SK-MEL-28 cells assessed as cell growth at 10 uM incubated for 48 hrs by sulforhodamine B assay relative to control; type: functional; conditions: SK-MEL-28, 48 h, read-out: Activity
# [20] = Growth inhibition of human HOP62 cells assessed as cell growth at 10 uM incubated for 48 hrs by sulforhodamine B assay relative to control; type: functional; conditions: HOP-62, 48 h, read-out: Activity
# [21] = Growth inhibition of human OVCAR5 cells assessed as cell growth at 10 uM incubated for 48 hrs by sulforhodamine B assay relative to control; type: functional; conditions: OVCAR-5, 48 h, read-out: Activity
# [22] = tested on: MDA-MB-231; assay: Growth inhibition of human MDA-MB-231/ATCC cells assessed as cell growth at 10 uM incubated for 48 hrs by sulforhodamine B assay relative to control; type: functional; conditions: MDA-MB-231, 48 h, read-out: Activity
# [23] = tested on: NCI/ADR-RES; assay: Growth inhibition of human NCI/ADR-RES cells assessed as cell growth at 10 uM incubated for 48 hrs by sulforhodamine B assay relative to control; type: functional; conditions: read-out: Activity
# [24] = tested on: ACHN; assay: Growth inhibition of human ACHN cells assessed as cell growth at 10 uM incubated for 48 hrs by sulforhodamine B assay relative to control; type: functional; conditions: read-out: Activity
# [25] = Growth inhibition of human IGROV1 cells assessed as cell growth at 10 uM incubated for 48 hrs by sulforhodamine B assay relative to control; type: functional; conditions: IGROV-1, 48 h, read-out: Activity
# [26] = Growth inhibition of human HCT15 cells assessed as cell growth at 10 uM incubated for 48 hrs by sulforhodamine B assay relative to control; type: functional; conditions: HCT-15, 48 h, read-out: Activity
# [27] = Quasi-reversible one electron redox potential in dichloromethane containing 0.1 M TBAP assessed as assessed as redox potential during -1/-2 redox transition at 2 mmol measured at 100 mV/s in presence of Fc/Fc by cyclic voltammetry; type: physicochemical
# [28] = Growth inhibition of human TK10 cells assessed as cell growth at 10 uM incubated for 48 hrs by sulforhodamine B assay relative to control; type: functional; conditions: TK-10, 48 h, read-out: Activity
# [29] = tested on: CCRF-CEM; assay: Growth inhibition of human CCRF-CEM cells assessed as cell growth at 10 uM incubated for 48 hrs by sulforhodamine B assay relative to control; type: functional; conditions: read-out: Activity
# [30] = Growth inhibition of human OVCAR4 cells assessed as cell growth at 10 uM incubated for 48 hrs by sulforhodamine B assay relative to control; type: functional; conditions: OVCAR-4, 48 h, read-out: Activity
# [31] = Growth inhibition of human BT549 cells assessed as cell growth at 10 uM incubated for 48 hrs by sulforhodamine B assay relative to control; type: functional; conditions: BT-549, 48 h, read-out: Activity
# [32] = tested on: NCI-H23; assay: Growth inhibition of human NCI-H23 cells assessed as cell growth at 10 uM incubated for 48 hrs by sulforhodamine B assay relative to control; type: functional; conditions: NCI-H23, 48 h, read-out: Activity
# [33] = tested on: KM12; assay: Growth inhibition of human KM12 cells assessed as cell growth at 10 uM incubated for 48 hrs by sulforhodamine B assay relative to control; type: functional; conditions: KM12, 48 h, read-out: Activity
# [34] = tested on: MDA-MB-468; assay: Growth inhibition of human MDA-MB-468 cells assessed as cell growth at 10 uM incubated for 48 hrs by sulforhodamine B assay relative to control; type: functional; conditions: MDA-MB-468, 48 h, read-out: Activity
SMILES,growth at 10 µM [1] [%],growth at 10 µM [2] [%],growth at 10 µM [3] [%],growth at 10 µM [4] [%],growth at 10 µM [5] [%],growth at 10 µM [6] [%],growth at 10 µM [7] [%],growth at 10 µM [8] [%],growth at 10 µM [9] [%],Activity [10] [V],growth at 10 µM [11] [%],growth at 10 µM [12] [%],growth at 10 µM [13] [%],growth at 10 µM [14] [%],growth at 10 µM [15] [%],growth at 10 µM [16] [%],growth at 10 µM [17] [%],growth at 10 µM [18] [%],growth at 10 µM [19] [%],growth at 10 µM [20] [%],also measured
O=c1ccc2nc(C(F)(F)F)nn(-c3ccccc3)c-2c1,-41.7,-20.5,35.2,73.1,-26.1,-70.7,78.3,93,91.9,-0.86,-40.5,79.3,79.9,35.6,92.8,-63.3,35.2,-11.3,35.7,66,growth at 10 µM [21]: 102%; growth at 10 µM [22]: 61%; growth at 10 µM [23]: 84%; growth at 10 µM [24]: -89%; growth at 10 µM [25]: 71.7%; growth at 10 µM [26]: -79.7%; Activity [27]: -1.55 V; growth at 10 µM [28]: -95%; growth at 10 µM [29]: -0.27%; growth at 10 µM [30]: 79.8%; growth at 10 µM [31]: 69.2%; growth at 10 µM [32]: 67.7%; growth at 10 µM [33]: 96.8%; growth at 10 µM [34]: -73.5%
O=c1ccc2nc(-c3ccccc3)nn(-c3ccccc3)c-2c1,-92.5,-37.6,-90.7,-2.36,-96.2,-76.8,44.6,73.6,23.9,-1.12,-36.5,59.1,84.4,-97.3,105,-60.5,-33,-20.2,26.4,69.5,growth at 10 µM [21]: 102%; growth at 10 µM [22]: 76.3%; growth at 10 µM [23]: 96.2%; growth at 10 µM [24]: -96%; growth at 10 µM [25]: 2.56%; growth at 10 µM [26]: -75.9%; Activity [27]: -1.75 V; growth at 10 µM [28]: -95.9%; growth at 10 µM [29]: -16.4%; growth at 10 µM [30]: -40.6%; growth at 10 µM [31]: 90.2%; growth at 10 µM [32]: 54.4%; growth at 10 µM [33]: 63.1%; growth at 10 µM [34]: -61.6%

# From ChEMBL document CHEMBL3813672, “Discovery of anti-cancer activity for benzo[1,2,4]triazin-7-ones: Very strong correlation to pleurotin and thioredoxin reductase inhibition” (Bioorg Med Chem, 2016)
